Data published in ChEMBL document CHEMBL5291721, “A preclinical secondary pharmacology resource illuminates target-adverse drug reaction associations of marketed drugs” (Nat Commun, 2023).
One block for each compound: values may come before it.

What was measured:
[1] = biological target: T1, Alpha-1A adrenergic receptor (Homo sapiens, UniProt P35348)
T1 sequence (P35348 whole entry): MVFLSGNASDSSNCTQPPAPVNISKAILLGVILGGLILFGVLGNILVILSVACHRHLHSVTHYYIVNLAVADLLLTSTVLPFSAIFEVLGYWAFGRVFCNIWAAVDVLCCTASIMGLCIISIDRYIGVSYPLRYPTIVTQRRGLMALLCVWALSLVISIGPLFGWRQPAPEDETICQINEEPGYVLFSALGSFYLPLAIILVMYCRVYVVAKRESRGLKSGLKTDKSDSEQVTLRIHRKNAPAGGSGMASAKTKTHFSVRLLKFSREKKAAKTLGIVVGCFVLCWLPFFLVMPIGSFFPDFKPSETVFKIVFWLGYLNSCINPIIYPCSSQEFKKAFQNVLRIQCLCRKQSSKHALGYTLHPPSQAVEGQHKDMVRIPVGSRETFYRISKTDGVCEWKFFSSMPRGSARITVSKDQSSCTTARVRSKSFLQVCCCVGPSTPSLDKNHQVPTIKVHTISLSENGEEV

D(1A) dopamine receptor [2] = biological target: T2, D(1A) dopamine receptor (Homo sapiens, UniProt P21728)
Histamine H1 receptor = Histamine H1 receptor (Homo sapiens, UniProt P35367); type: functional, cell-based
Cannabinoid receptor 1 = Cannabinoid receptor 1 (Homo sapiens, UniProt P21554); type: functional
[3] = biological target: T1, Alpha-1A adrenergic receptor; remark: listed apart in the source
Androgen receptor = biological target: T3, Androgen receptor (Rattus norvegicus, UniProt P15207); type: functional
T3 sequence (P15207 whole entry): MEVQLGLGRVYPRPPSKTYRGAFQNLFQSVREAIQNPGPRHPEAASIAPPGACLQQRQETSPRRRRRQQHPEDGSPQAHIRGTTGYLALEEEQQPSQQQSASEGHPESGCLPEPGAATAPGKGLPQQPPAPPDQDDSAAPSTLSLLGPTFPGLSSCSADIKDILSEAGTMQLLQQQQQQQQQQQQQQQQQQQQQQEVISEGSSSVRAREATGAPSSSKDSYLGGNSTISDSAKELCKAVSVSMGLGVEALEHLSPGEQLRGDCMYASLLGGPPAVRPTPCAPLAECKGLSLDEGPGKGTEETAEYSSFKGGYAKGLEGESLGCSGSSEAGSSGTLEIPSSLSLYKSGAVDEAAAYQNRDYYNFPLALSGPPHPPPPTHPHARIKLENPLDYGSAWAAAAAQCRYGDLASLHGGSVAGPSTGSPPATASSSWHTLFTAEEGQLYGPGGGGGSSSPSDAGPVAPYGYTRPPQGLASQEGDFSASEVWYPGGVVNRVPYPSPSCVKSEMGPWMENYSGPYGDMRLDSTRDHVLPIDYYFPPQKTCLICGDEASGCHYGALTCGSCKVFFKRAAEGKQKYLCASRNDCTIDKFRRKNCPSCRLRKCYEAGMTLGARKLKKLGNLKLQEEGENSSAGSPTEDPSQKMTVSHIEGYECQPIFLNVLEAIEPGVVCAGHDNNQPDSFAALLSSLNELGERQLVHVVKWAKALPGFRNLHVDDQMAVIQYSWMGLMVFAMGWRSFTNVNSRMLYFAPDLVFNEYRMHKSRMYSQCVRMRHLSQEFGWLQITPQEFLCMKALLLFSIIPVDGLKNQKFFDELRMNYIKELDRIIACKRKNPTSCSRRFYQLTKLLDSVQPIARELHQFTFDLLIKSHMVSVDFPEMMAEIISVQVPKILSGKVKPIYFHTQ

[4] = biological target: T4, Muscarinic acetylcholine receptor M4 (Homo sapiens, UniProt P08173)
T4 sequence (P08173 whole entry): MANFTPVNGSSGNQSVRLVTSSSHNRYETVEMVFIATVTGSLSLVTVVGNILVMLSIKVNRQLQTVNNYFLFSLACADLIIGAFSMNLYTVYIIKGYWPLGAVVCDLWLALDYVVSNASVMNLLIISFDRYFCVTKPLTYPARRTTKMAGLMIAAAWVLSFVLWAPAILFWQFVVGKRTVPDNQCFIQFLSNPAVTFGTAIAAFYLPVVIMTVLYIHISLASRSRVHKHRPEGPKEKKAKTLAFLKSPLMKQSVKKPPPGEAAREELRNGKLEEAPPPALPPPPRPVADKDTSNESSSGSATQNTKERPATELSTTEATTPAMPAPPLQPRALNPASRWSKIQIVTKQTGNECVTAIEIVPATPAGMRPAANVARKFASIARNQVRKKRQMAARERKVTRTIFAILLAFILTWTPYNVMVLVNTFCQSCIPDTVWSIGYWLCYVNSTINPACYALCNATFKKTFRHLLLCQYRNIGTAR

D(1A) dopamine receptor [5] = biological target: T2, D(1A) dopamine receptor; type: functional, cell-based
[6] = biological target: Epidermal growth factor receptor (Homo sapiens, UniProt P00533); type: functional
[7] = biological target: Receptor tyrosine-protein kinase erbB-2 (Homo sapiens, UniProt P04626); type: functional
Acetylcholinesterase = Acetylcholinesterase (Homo sapiens, UniProt P22303); type: functional
[8] = biological target: T5, Prostaglandin G/H synthase 1 (Rattus norvegicus, UniProt Q63921); type: functional
T5 sequence (Q63921 whole entry): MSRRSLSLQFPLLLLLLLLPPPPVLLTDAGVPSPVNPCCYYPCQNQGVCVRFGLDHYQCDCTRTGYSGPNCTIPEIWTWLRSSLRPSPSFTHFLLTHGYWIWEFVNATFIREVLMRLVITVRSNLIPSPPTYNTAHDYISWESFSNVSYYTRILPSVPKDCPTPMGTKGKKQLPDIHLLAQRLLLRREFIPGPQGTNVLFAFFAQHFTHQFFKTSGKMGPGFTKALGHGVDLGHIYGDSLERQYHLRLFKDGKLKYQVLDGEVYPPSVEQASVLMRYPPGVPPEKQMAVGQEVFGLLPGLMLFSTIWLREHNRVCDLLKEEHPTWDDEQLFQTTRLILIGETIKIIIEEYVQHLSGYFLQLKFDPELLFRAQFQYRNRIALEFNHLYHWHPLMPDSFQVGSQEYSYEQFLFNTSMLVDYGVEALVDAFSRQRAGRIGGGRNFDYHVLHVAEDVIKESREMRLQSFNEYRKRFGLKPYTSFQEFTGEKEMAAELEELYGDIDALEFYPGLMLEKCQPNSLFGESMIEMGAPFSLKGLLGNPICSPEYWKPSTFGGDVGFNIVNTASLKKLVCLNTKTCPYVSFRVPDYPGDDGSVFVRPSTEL
Note: assay procedure not described here.

Sequence of Cannabinoid receptor 1 (P21554 whole entry): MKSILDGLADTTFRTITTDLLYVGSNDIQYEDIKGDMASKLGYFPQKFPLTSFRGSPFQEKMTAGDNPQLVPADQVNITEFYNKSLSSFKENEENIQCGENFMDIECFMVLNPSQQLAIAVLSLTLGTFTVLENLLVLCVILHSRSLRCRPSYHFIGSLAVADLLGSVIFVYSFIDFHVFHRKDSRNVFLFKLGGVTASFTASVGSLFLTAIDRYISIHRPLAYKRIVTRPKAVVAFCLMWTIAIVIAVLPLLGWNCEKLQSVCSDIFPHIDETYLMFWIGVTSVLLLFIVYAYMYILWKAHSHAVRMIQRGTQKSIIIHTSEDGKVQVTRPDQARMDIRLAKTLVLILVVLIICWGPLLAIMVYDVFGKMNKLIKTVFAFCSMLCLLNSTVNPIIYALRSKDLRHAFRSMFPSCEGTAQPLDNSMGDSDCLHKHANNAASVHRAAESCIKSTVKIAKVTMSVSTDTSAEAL
Sequence of Histamine H1 receptor (P35367 whole entry): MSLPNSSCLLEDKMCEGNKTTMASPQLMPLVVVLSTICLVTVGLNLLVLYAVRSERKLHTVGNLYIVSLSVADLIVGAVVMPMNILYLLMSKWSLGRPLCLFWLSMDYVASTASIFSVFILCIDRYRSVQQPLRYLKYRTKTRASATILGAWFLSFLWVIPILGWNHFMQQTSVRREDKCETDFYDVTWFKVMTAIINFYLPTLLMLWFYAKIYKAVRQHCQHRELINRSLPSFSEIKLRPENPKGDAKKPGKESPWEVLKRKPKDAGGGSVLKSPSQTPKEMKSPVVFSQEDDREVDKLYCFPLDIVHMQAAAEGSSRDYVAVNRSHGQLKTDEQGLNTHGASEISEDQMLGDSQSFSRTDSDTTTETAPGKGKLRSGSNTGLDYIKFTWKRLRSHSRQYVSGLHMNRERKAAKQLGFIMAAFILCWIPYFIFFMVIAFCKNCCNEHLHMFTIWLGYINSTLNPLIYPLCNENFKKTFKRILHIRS
T2 sequence (P21728 whole entry): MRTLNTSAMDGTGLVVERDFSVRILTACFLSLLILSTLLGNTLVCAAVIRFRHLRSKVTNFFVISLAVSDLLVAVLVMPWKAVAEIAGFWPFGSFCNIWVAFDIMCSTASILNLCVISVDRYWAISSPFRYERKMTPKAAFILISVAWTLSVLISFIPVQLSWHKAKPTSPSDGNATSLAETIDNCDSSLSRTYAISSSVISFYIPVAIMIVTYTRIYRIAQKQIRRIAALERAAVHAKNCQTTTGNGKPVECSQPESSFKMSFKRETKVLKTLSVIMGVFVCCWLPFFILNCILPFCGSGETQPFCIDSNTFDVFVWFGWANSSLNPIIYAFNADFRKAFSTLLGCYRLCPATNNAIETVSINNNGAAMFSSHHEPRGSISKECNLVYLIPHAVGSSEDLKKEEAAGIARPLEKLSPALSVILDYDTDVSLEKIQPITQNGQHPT
Sequence of Acetylcholinesterase (P22303 whole entry): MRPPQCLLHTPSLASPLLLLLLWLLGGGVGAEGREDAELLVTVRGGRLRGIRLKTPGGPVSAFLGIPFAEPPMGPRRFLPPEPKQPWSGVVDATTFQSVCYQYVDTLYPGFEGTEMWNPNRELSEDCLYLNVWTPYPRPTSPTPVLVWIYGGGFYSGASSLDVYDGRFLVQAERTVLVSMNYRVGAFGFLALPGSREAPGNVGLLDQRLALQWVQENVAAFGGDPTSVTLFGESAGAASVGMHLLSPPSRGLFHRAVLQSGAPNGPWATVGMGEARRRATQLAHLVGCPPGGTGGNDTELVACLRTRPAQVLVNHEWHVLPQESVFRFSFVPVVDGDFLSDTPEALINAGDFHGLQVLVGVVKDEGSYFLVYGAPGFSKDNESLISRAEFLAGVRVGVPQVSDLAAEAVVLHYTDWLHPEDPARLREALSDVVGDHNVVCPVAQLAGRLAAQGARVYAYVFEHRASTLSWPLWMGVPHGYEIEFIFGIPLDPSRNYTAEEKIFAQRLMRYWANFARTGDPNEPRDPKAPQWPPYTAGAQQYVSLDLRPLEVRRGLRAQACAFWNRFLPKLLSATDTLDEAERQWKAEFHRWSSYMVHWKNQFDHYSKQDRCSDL
Sequence of Receptor tyrosine-protein kinase erbB-2 (P04626 whole entry): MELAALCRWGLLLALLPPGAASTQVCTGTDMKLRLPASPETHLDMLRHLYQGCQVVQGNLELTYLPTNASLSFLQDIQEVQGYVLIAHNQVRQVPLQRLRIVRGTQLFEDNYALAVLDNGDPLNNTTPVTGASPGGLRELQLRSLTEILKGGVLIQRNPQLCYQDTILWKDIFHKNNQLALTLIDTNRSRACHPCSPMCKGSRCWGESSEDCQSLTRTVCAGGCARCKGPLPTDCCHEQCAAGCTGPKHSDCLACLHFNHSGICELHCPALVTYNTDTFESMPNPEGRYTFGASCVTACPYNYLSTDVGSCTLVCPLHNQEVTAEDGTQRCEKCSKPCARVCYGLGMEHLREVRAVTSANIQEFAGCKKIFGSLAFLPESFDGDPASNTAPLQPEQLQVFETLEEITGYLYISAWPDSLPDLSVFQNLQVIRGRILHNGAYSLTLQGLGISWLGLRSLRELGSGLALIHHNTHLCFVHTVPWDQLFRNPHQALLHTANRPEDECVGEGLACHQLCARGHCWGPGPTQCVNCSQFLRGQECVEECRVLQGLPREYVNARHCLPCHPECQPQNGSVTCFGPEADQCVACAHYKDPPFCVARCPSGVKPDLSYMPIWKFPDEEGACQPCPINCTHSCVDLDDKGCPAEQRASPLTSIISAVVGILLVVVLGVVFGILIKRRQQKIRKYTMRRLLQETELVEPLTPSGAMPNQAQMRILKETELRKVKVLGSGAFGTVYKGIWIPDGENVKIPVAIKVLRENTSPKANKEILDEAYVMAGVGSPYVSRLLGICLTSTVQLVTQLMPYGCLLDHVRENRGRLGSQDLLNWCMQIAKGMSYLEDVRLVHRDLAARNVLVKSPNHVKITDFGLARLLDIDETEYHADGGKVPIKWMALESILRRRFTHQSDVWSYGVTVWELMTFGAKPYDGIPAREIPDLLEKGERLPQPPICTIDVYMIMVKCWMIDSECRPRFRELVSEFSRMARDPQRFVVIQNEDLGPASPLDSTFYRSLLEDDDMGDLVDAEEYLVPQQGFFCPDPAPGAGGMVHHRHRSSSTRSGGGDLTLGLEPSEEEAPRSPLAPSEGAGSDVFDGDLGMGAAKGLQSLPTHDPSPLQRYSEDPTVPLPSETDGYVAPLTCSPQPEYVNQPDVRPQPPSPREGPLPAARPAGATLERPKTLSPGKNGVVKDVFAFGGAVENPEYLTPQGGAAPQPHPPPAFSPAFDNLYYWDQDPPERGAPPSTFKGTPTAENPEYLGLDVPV
Sequence of Epidermal growth factor receptor (P00533 whole entry): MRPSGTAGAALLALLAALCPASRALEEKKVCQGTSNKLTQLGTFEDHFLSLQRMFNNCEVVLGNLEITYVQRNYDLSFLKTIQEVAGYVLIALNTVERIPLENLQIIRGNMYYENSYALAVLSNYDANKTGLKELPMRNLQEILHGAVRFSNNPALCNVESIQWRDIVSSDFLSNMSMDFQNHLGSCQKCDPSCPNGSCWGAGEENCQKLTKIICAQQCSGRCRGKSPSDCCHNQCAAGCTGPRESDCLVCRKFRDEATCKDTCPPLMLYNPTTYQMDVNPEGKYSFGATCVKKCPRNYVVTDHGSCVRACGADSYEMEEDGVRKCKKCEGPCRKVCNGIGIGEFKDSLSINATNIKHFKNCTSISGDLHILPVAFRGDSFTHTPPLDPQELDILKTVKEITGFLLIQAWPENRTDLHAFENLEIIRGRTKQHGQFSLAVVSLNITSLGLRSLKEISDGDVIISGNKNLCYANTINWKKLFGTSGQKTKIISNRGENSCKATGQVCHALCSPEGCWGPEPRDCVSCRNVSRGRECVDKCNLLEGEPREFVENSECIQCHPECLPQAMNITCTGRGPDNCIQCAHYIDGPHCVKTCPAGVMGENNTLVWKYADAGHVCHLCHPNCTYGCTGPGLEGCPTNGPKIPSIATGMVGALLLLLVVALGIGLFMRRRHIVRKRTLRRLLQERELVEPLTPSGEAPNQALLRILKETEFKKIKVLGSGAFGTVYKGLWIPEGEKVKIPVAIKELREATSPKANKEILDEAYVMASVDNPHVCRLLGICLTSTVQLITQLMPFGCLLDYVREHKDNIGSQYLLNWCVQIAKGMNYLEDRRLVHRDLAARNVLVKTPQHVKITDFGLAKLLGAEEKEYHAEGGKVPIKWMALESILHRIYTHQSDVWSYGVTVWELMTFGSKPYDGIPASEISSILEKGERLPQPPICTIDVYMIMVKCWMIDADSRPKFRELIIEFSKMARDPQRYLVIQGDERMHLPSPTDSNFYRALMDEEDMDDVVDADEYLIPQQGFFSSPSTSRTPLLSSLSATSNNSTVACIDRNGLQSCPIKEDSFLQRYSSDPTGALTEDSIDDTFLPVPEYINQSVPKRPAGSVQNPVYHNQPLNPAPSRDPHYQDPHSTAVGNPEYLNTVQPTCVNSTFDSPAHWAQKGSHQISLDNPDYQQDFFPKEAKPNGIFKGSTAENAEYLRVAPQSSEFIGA

Structure (SMILES): FC(F)(F)c1ccc(CNc2ccc(Cc3c[nH]c4ncc(Cl)cc34)cn2)cn1 [PEXIDARTINIB]
AC50 [1]: 1.31 µM | AC50 (D(1A) dopamine receptor [2]): 5.53 µM

Structure (SMILES): CN1C(C(=O)Nc2ccccn2)=C(O)c2ccccc2S1(=O)=O [PIROXICAM]
AC50 [1]: > 30 µM | AC50 (D(1A) dopamine receptor [2]): > 30 µM

AC50 (Histamine H1 receptor): > 30 µM
Structure (SMILES): C=C[C@H]1C[N@@]2CC[C@H]1C[C@@H]2[C@@H](O)c1ccnc2ccc(OC)cc12 [QUINIDINE]

AC50 (Cannabinoid receptor 1): > 10 µM | AC50 [3]: > 10 µM
Structure (SMILES): CO[C@H]1/C=C/O[C@@]2(C)Oc3c(C)c(O)c4c(O)c(c(/C=N/N5CCN(C)CC5)c(O)c4c3C2=O)NC(=O)/C(C)=C\C=C\[C@H](C)[C@H](O)[C@@H](C)[C@@H](O)[C@@H](C)[C@H](OC(C)=O)[C@@H]1C [RIFAMPIN]

AC50 (Cannabinoid receptor 1): > 10 µM | AC50 (Histamine H1 receptor): > 30 µM | AC50 [3]: > 10 µM
Structure (SMILES): CN(C)CCc1c[nH]c2ccc(Cn3cncn3)cc12 [RIZATRIPTAN]

AC50 (Histamine H1 receptor): > 30 µM
Structure (SMILES): CC(C)c1nc(N(C)S(C)(=O)=O)nc(-c2ccc(F)cc2)c1/C=C/[C@@H](O)C[C@@H](O)CC(=O)O [ROSUVASTATIN]

Structure (SMILES): CC[C@@]1(O)C(=O)OCc2c1cc1n(c2=O)Cc2cc3c([N+](=O)[O-])cccc3nc2-1 [RUBITECAN]
AC50 [1]: > 30 µM | AC50 (D(1A) dopamine receptor [2]): > 30 µM

AC50 (Androgen receptor): > 30 µM | AC50 [4]: > 10 µM | AC50 (Cannabinoid receptor 1): > 10 µM | AC50 [3]: > 10 µM
Structure (SMILES): N[C@@H](CC(=O)N1CCn2c(nnc2C(F)(F)F)C1)Cc1cc(F)c(F)cc1F [SITAGLIPTIN]

Structure (SMILES): OC[C@@H](O)[C@@H](O)[C@H](O)[C@@H](O)CO [SORBITOL]
AC50 [1]: > 30 µM | AC50 (D(1A) dopamine receptor [2]): > 30 µM

Structure (SMILES): OC[C@H]1O[C@@](CO)(O[C@H]2O[C@H](CO)[C@@H](O)[C@H](O)[C@H]2O)[C@@H](O)[C@@H]1O [SUCROSE]
AC50 [1]: > 30 µM | AC50 (D(1A) dopamine receptor [2]): > 30 µM | AC50 (Histamine H1 receptor): > 30 µM

AC50 [3]: > 10 µM
Structure (SMILES): Nc1ccc(S(=O)(=O)Nc2nccs2)cc1 [SULFATHIAZOLE]

AC50 (Androgen receptor): 5.9 µM | AC50 [4]: > 10 µM
Structure (SMILES): CCN(CC)CCNC(=O)c1c(C)[nH]c(/C=C2\C(=O)Nc3ccc(F)cc32)c1C [SUNITINIB]

Structure (SMILES): C=CC[C@@H]1/C=C(\C)C[C@H](C)C[C@H](OC)[C@H]2O[C@@](O)(C(=O)C(=O)N3CCCC[C@H]3C(=O)O[C@H](/C(C)=C/[C@@H]3CC[C@@H](O)[C@H](OC)C3)[C@H](C)[C@@H](O)CC1=O)[C@H](C)C[C@@H]2OC [TACROLIMUS ANHYDROUS]
AC50 (Androgen receptor): > 30 µM | AC50 (Cannabinoid receptor 1): > 10 µM | AC50 (D(1A) dopamine receptor [5]): > 30 µM | AC50 [6]: > 30 µM | AC50 [7]: > 30 µM | AC50 [3]: > 10 µM | AC50 (Acetylcholinesterase): > 30 µM

AC50 (Androgen receptor): > 30 µM
Structure (SMILES): CC(S)C(=O)NCC(=O)O (stereo not drawn) [TIOPRONIN]

Structure (SMILES): C[C@H](CCC(=O)O)[C@H]1CC[C@H]2[C@@H]3[C@@H](O)C[C@@H]4C[C@H](O)CC[C@]4(C)[C@H]3CC[C@]12C [URSODIOL]
AC50 (D(1A) dopamine receptor [5]): > 30 µM | AC50 [6]: > 30 µM | AC50 [7]: > 30 µM | AC50 (Acetylcholinesterase): > 30 µM

Structure (SMILES): Cc1onc(-c2ccccc2)c1-c1ccc(S(N)(=O)=O)cc1 [VALDECOXIB]
AC50 [4]: > 10 µM | AC50 (Cannabinoid receptor 1): > 10 µM | AC50 [8]: > 30 µM | AC50 [3]: > 10 µM

Structure (SMILES): CCCC(CCC)C(=O)O [VALPROIC ACID]
AC50 [4]: > 10 µM | AC50 (Cannabinoid receptor 1): > 10 µM
